Experimental data reported in US4837206A, “Esperamicin derivatives” (Bristol-Myers Company, priority 1987, dated 1989).
≈ marks a conversion by molar mass, not a printed value.

Legend:
P388 murine leukemia = test: P388 In Vivo Murine Leukemia Assay; design: species or system CDF1 female mice; settings: i.p., once on day 1; for % T/C (median survival time): >=125% significant; for MST: control MST 9.5 days; for Average Wgt. change in g (day 4): control 1.1; for No. Mice alive on day 5/total: control 10/10
Experimental: The test protocol involved CDF1 female mice implanted intraperitoneally with a tumor inoculum of 10^6 ascites cells of P388 murine leukemia and treated with various doses of test compound. The compound was administered by intraperitoneal injection on a certain dosage schedule, i.e. test drug given once on day one, the day of tumor inoculation. Groups of four mice were used for each dosage amount. A group of ten saline-treated control mice was employed.
The test compound was dissolved in a mixture of water and ethanol. Death or survival of the treated and non-treated mice was recorded daily, and the median survival time (MST) in days was calculated for the test (T) and control (C) groups. […] Mice weighing 20 g each were employed and a loss in weight of up to about 2 grams was not considered excessive.

S. faecalis A20688 = test: Antimicrobial activity, serial two-fold agar dilution; assay type: cell-based; settings: Enterococcus faecalis, nutrient agar medium
Experimental: (§1) Antimicrobial activity of N-acetylesperamicin A1 was determined for a variety of bacteria by the serial two-fold agar dilution method. Nutrient agar medium was used.

[1] = system: S. aureus/ATCC 29213 A24407; test: as above; assay type: cell-based; settings: Staphylococcus aureus, ATCC29213; nutrient agar medium
Experimental: as §1

K. pneumoniae A9664 = test: as above; assay type: cell-based; settings: Klebsiella pneumoniae, nutrient agar medium
Experimental: as §1

P. vulgaris A21559 = test: as above; assay type: cell-based; settings: Proteus vulgaris, nutrient agar medium
Experimental: as §1

[2] = system: S. aureus/NCCLS strain A20698; test: as above; assay type: cell-based; settings: Staphylococcus aureus; nutrient agar medium
Experimental: as §1

E. coli A15119 = test: as above; assay type: cell-based; settings: Escherichia coli, nutrient agar medium
Experimental: as §1

[3] = system: S. faecalis/ATCC 29218 A25707; test: as above; assay type: cell-based; settings: Enterococcus faecalis, ATCC29218; nutrient agar medium
Experimental: as §1

[4] = system: P. aeruginosa/ATCC 27853 A21508; test: as above; assay type: cell-based; settings: Pseudomonas aeruginosa, ATCC27853; nutrient agar medium
Experimental: as §1

[5] = system: P. aeruginosa/ATCC 23389 A20235; test: as above; assay type: cell-based; settings: Pseudomonas aeruginosa, ATCC23389; nutrient agar medium
Experimental: as §1

[6] = system: E. coli/NCCLS strain A20697; test: as above; assay type: cell-based; settings: Escherichia coli; nutrient agar medium
Experimental: as §1

[7] = system: B. subtilis/ATCC 6633 A9506-A; test: as above; assay type: cell-based; settings: Bacillus subtilis, ATCC6633; nutrient agar medium
Experimental: as §1

P. aeruginosa A9843 = test: as above; assay type: cell-based; settings: Pseudomonas aeruginosa, nutrient agar medium
Experimental: as §1

[8] = system: S. faecalis/ATCC 33186 A15708; test: as above; assay type: cell-based; settings: Enterococcus faecalis, ATCC33186; nutrient agar medium
Experimental: as §1

S. aureus A9537 = test: as above; assay type: cell-based; settings: Staphylococcus aureus, nutrient agar medium
Experimental: as §1

K. pneumoniae A20468 = test: as above; assay type: cell-based; settings: Klebsiella pneumoniae, nutrient agar medium
Experimental: as §1

HCT/VP35 = test: In vitro cytotoxicity assay; assay type: cell-based; settings: Homo sapiens; HCT/VP35, etoposide-resistant; cell growth inhibition; values <500 mcg/ml positive indicator of activity
Experimental: (§2) N-Acetylesperamicin A1 was also tested in the in vitro cytotoxicity assay. This assay involves growing various mammalian tumor cells, including human tumor cells, on microtiter plates employing established tissue culture methods. The concentration of compound required to inhibit cell growth by 50% (IC50) was then determined by a four-fold serial dilution technique. The validity of the method has been supported by a report published in the "Proceedings of the American Association for Cancer Research", Vol. 25, 328, p. 1891 (1984). Tumor cells of the following types were employed: B16-F10 murine melanoma, Moser human colon, and three human colon tumor cell lines, namely HCT-116, HCT-VM34 and HCT/VP35, the latter two being resistant to teniposide (VM) and etoposide (VP).

Moser human colon = test: In vitro cytotoxicity assay; assay type: cell-based; settings: cell growth inhibition, four-fold serial dilution, values <500 mcg/ml positive indicator of activity
Experimental: as §2

HCT/VM34 = test: In vitro cytotoxicity assay; assay type: cell-based; settings: Homo sapiens; HCT/VM34, teniposide-resistant; cell growth inhibition; values <500 mcg/ml positive indicator of activity
Experimental: as §2

HCT-116 = test: In vitro cytotoxicity assay; assay type: cell-based; settings: Homo sapiens, cell growth inhibition, four-fold serial dilution, values <500 mcg/ml positive indicator of activity
Experimental: as §2

B16-F10 murine melanoma = test: In vitro cytotoxicity assay; assay type: cell-based; settings: Mus musculus, cell growth inhibition, four-fold serial dilution, values <500 mcg/ml positive indicator of activity
Experimental: as §2

pathogenic bacteria = test: Antimicrobial activity (overall); assay type: cell-based
Experimental: as §1

Structure (SMILES): C=C(OC)C(=O)Nc1cc(OC)c(OC)cc1C(=O)OC1CC(OC2C(=O)C(NC(=O)OC)=C3C(=CCSSSC)C2(O)C#CC=CC#CC3OC2OC(C)C(NOC3CC(O)C(SC)C(C)O3)C(O)C2OC2CC(OC)C(N(C(C)=O)C(C)C)CO2)OC(C)C1O (stereo not shown) [N-Acetylesperamicin A1]
- % T/C (median survival time) (P388 murine leukemia; 0.0016 mg/kg): 147%
- MST (P388 murine leukemia; 0.0016 mg/kg): 14.0 days
- Average Wgt. change in g (day 4) (P388 murine leukemia; 0.0016 mg/kg): -0.5 g
- No. Mice alive on day 5/total (P388 murine leukemia; 0.0016 mg/kg): 6/6
- % T/C (median survival time) (P388 murine leukemia; 0.0032 mg/kg): 153%
- MST (P388 murine leukemia; 0.0032 mg/kg): 14.5 days
- Average Wgt. change in g (day 4) (P388 murine leukemia; 0.0032 mg/kg): -0.2 g
- No. Mice alive on day 5/total (P388 murine leukemia; 0.0032 mg/kg): 6/6
- % T/C (median survival time) (P388 murine leukemia; 0.0064 mg/kg): 147%
- MST (P388 murine leukemia; 0.0064 mg/kg): 14.0 days
- Average Wgt. change in g (day 4) (P388 murine leukemia; 0.0064 mg/kg): -1.7 g
- No. Mice alive on day 5/total (P388 murine leukemia; 0.0064 mg/kg): 6/6
- % T/C (median survival time) (P388 murine leukemia; 0.0128 mg/kg): 179%
- MST (P388 murine leukemia; 0.0128 mg/kg): 17.0 days
- Average Wgt. change in g (day 4) (P388 murine leukemia; 0.0128 mg/kg): -2.2 g
- No. Mice alive on day 5/total (P388 murine leukemia; 0.0128 mg/kg): 6/6
- % T/C (median survival time) (P388 murine leukemia; 0.0256 mg/kg): 63%
- MST (P388 murine leukemia; 0.0256 mg/kg): 6.0 days
- Average Wgt. change in g (day 4) (P388 murine leukemia; 0.0256 mg/kg): -3.1 g
- No. Mice alive on day 5/total (P388 murine leukemia; 0.0256 mg/kg): 4/6
- % T/C (median survival time) (P388 murine leukemia; 0.0512 mg/kg): 63%
- MST (P388 murine leukemia; 0.0512 mg/kg): 6.0 days
- Average Wgt. change in g (day 4) (P388 murine leukemia; 0.0512 mg/kg): -2.9 g
- No. Mice alive on day 5/total (P388 murine leukemia; 0.0512 mg/kg): 4/6
- % T/C (median survival time) (P388 murine leukemia; 0.0896 mg/kg): TOX
- MST (P388 murine leukemia; 0.0896 mg/kg): TOX
- Average Wgt. change in g (day 4) (P388 murine leukemia; 0.0896 mg/kg): -3.4 g
- No. Mice alive on day 5/total (P388 murine leukemia; 0.0896 mg/kg): 0/6
- MIC (S. faecalis A20688): 0.03 µg/mL (≈ 0.0219 µM)
- MIC [1]: 0.03 µg/mL (≈ 0.0219 µM)
- MIC (K. pneumoniae A9664): 32 µg/mL (≈ 23.4 µM)
- MIC (P. vulgaris A21559): 125 µg/mL (≈ 91.4 µM)
- MIC [2]: 0.016 µg/mL (≈ 0.0117 µM)
- MIC (E. coli A15119): 32 µg/mL (≈ 23.4 µM)
- MIC [3]: 0.016 µg/mL (≈ 0.0117 µM)
- MIC [4]: > 125 µg/mL
- MIC [5]: 125 µg/mL (≈ 91.4 µM)
- MIC [6]: 8 µg/mL (≈ 5.85 µM)
- MIC [7]: 0.03 µg/mL (≈ 0.0219 µM)
- MIC (P. aeruginosa A9843): > 125 µg/mL
- MIC [8]: 0.016 µg/mL (≈ 0.0117 µM)
- MIC (S. aureus A9537): 0.008 µg/mL (≈ 0.00585 µM)
- MIC (K. pneumoniae A20468): > 125 µg/mL
- IC50 (HCT/VP35): 0.0271 µg/mL (≈ 0.0198 µM)
- IC50 (Moser human colon): 1 µg/mL (≈ 0.731 µM)
- IC50 (HCT/VM34): 0.3 µg/mL (≈ 0.219 µM)
- IC50 (HCT-116): 0.0135 µg/mL (≈ 0.00987 µM)
- IC50 (B16-F10 murine melanoma): 0.0522 µg/mL (≈ 0.0382 µM)
- Antibacterial activity (in words) (pathogenic bacteria): showed activity against a variety of pathogenic bacteria
